For 80 compounds, viability results are on record in publication PMC12040169 (PLOS Biology, 2025).

The structures appear in SMILES notation.

A short description of this data set: in vitro. The settings on record: human, hela cells, % viability.
`Cc1nc(N2CCOCC2)[nH]c(=O)c1CCC(=O)Nc1ccc(F)cc1` [CBK304990]: the viability at 28.5 h, 10 µM came out at 91.1%. Take `C[C@H]1CN2CCCC2CN1Cc1cccc(F)c1F` (some centres unmarked) [CBK285454]: the viability at 28.5 h, 10 µM was found to be 111%. Regarding `Nc1nn2c(c1Cc1c(Cl)cccc1Cl)OC(=O)CCC2=O` [CBK093439], the viability at 28.5 h, 10 µM turned out to be 113%. As to `O=C(CN(c1ccccc1)S(=O)(=O)c1ccccc1[N+](=O)[O-])Nc1ccc(C(F)(F)F)cc1` [CBK267137], the viability at 28.5 h, 10 µM amounted to 64.6%. Consider `CC(NCc1ccncc1)=C1C(=O)c2ccccc2C1=O` [CBK262890], for which the viability at 28.5 h, 10 µM was 105%. The figure for `CCn1nc(C)c(CN(C)Cc2nc3ccccc3[nH]2)c1C` [CBK282126] is 93.9%; for `CN1CCc2c(C#N)c(N)n(N)c(=S)c2C1` [CBK264055] it is 101%.

`C=CCn1c2cc(C)oc2c2cnn(CC(=O)N(C)C)c(=O)c21` [CBK283326]: the viability at 28.5 h, 10 µM came out at 101%.

In the case of `Cc1ccc(S(=O)(=O)N2CCN(C(=O)c3ccco3)CC2)cc1` [CBK068166], the viability at 28.5 h, 10 µM amounted to 92.8%.

Turning to `Cc1nc(-c2cc3c(s2)CCN(CC(O)COCc2ccco2)C3)cs1` (centres unmarked) [CBK304460], the viability at 28.5 h, 10 µM turned out to be 89.4%. With `Cc1cccc(C(C)NC(=O)C2(Cn3ccnc3)CC2)n1` (centres unmarked) [CBK306944], the viability at 28.5 h, 10 µM is 86.4%. The figure for `C=CCn1c(SCC(=O)Nc2cc(Cl)ccc2O)nnc1-c1ccccc1O` [CBK269102] is 100%; for `COc1ccccc1NC(=O)c1sc2nc(N3CCOCC3)c3c(c2c1N)CCCC3` [CBK269247] it is 103%. For the compound `CCOC(=O)CN1CCN(c2nccnc2OC2CCCCC2)CC1` [CBK082837T], the viability at 28.5 h, 10 µM was 102%. The figure for `N#Cc1ccc(NCc2ccccc2CN2CCCC2CO)nc1` (centres unmarked) [CBK304055] is 95.8%; for `Cc1[nH]nc2c1C(c1ccc(Cl)cc1)N(CCc1c[nH]c3ccccc13)C2=O` (centres unmarked) [CBK287919] it is 114%.

For the compound `C=CCN1C(=O)CC2(C1=O)C(=O)N(CCCn1c(=O)c3c(ncn3C)n(C)c1=O)c1ccc(OC)cc12` (centres unmarked) [CBK075701], the viability at 28.5 h, 10 µM was 93.6%. For `CCNc1cncc(-c2ccc(OC)cc2)n1` [CBK065370], the viability at 28.5 h, 10 µM came to 92.1%.

`CN1CCC(=NNC(=O)CSCc2ccccc2Br)CC1` [CBK026542]: the viability at 28.5 h, 10 µM came to 104%.

Regarding `Cn1ccnc1C(NC(=O)C1C2CCCCC21)c1ccc(F)cc1` (centres unmarked) [CBK281441], the viability at 28.5 h, 10 µM stood at 98.7%. The figure for `Cc1ccc(C(C)C)c(OCc2ccc(C(=O)Nc3ccc(S(N)(=O)=O)cc3C)o2)c1` [CBK265833] is 96.3%; for `CN(C)CCCNC(=O)c1cc2c(n(-c3ccc(Cl)c(Cl)c3)c1=O)CC(C)(C)CC2=O` [CBK293952] it is 87.4%.

As to `COc1cc(C(=O)N2CCC3(CC2)CC(=O)c2cc(CN4CCN(C)CC4)ccc2O3)cc(OC)c1C` [CBK169185], the viability at 28.5 h, 10 µM is 94.6%. As to `Clc1ccc(OCc2ccccc2)c(CNCc2ccccn2)c1` [CBK269850C], the viability at 28.5 h, 10 µM was determined as 91.2%. Turning to `COc1ccc(Br)c(C(CO)N(C)C(=O)Cc2cnccc2C)c1` (centres unmarked) [CBK306267], the viability at 28.5 h, 10 µM came to 96.4%.

Take `CCn1c(C)c(C)n2c3c(=O)n(CCN4CCOCC4)c(=O)n(C)c3nc12` [CBK269786]: the viability at 28.5 h, 10 µM turned out to be 90.6%. In the case of `CCOc1cc(/C=c2/sc3nc(=O)c(Cc4ccccc4)nn3c2=O)ccc1OC(C)=O` [CBK077455] it was 89.2%; in that of `O=C(CN1CCC(c2ccncc2)CC1)N1CCCCC1` [CBK283504], 102%. In the case of `CS(=O)(=O)N(Cc1ccccc1F)c1ccccc1C(=O)O` [CBK287239], the viability at 28.5 h, 10 µM amounted to 104%. For the compound `Cc1ccccc1/N=C1/NC(=O)/C(=C/c2cccn2-c2ccc(S(N)(=O)=O)cc2)S1` [CBK265681], the viability at 28.5 h, 10 µM came out at 107%. In the case of `CC(Cc1cccs1)NC(=O)C(C)n1ccnc1` (centres unmarked) [CBK282050] it was 89.9%; in that of `COc1cccc(CN2CCN(C(=O)c3ccco3)[C@@H](C)C2)c1` [CBK284267], 110%. Turning to `c1csc(CNc2c(-c3cccs3)nc3cnccn23)c1` [CBK283685], the viability at 28.5 h, 10 µM turned out to be 92.7%.

In the case of `Nn1c(Cn2nnc3ccccc32)n[nH]c1=S` [CBK268233], the viability at 28.5 h, 10 µM worked out at 111%. In the case of `O=C(CC1Sc2ccccc2NC1=O)Nc1ccc(C(F)(F)F)cc1` (centres unmarked) [CBK287585] it was 88.6%.

For `NC(=O)c1c(NC(=O)CCN2C(=O)c3cccc([N+](=O)[O-])c3C2=O)sc2c1CCCC2` [CBK263132], the viability at 28.5 h, 10 µM turned out to be 105%. As to `Cn1nc(C2CCCC2)cc1[C@H]1CN2CC[C@H]1C[C@@H]2CNS(=O)(=O)c1ccccc1` [CBK288741], the viability at 28.5 h, 10 µM was found to be 96.3%. Take `COc1ccc(CNC(=O)C2CCCN(c3cnc4ccccc4n3)C2)cc1` (centres unmarked) [CBK287772]: the viability at 28.5 h, 10 µM worked out at 112%.

`N#CCCN(C(=O)Nc1ccc2[nH]ccc2c1)C1CCCCC1` [CBK156362]: the viability at 28.5 h, 10 µM came to 97.9%. In the case of `O=C(C1CC1)N1CCC(Cn2nc(-c3ccccc3)ccc2=O)CC1` [CBK284115] it was 89.7%; in that of `Cc1ccc(C#N)cc1S(=O)(=O)NC(=O)COCC1CC1` [CBK304427], 113%. Turning to `Cc1ccc2nc(SCCC(=O)O)cc(C)c2c1` [CBK286861], the viability at 28.5 h, 10 µM is 90.1%.

With `CCOC(=O)NC(=S)NCCCn1ccnc1` [CBK018272], the viability at 28.5 h, 10 µM came to 112%.

Take `CC1CCCN(C(=O)c2ccc(-n3ccnc3)c(-n3cccc3)c2)C1` (centres unmarked) [CBK285370]: the viability at 28.5 h, 10 µM worked out at 95.1%. In the case of `CN1CCN(C(=O)c2ccc(-c3cncc(-c4ccc(O)cc4)n3)c(F)c2)CC1` [CBK126752] it was 100%. With `O=C(NCCN1CCOCC1)N1CCN(c2ccccc2)CC1` [CBK155180], the viability at 28.5 h, 10 µM amounted to 83.8%. `CNC(=S)NCc1ccncc1` [CBK020033]: the viability at 28.5 h, 10 µM came out at 106%. For `Cc1cc(-c2nnc(SCC(=O)N3CCCc4ccccc43)o2)no1` [CBK268828], the viability at 28.5 h, 10 µM came out at 88%. On to `Cc1cccc(NC(=O)c2cnc3scc(C)n3c2=O)c1` [CBK287453], for which the viability at 28.5 h, 10 µM was 112%.

On to `Cc1ccc2[nH]c3c(c2c1)CCNC31CCN(C(=O)CC(C)CC(=O)O)CC1` (centres unmarked) [CBK047196], for which the viability at 28.5 h, 10 µM amounted to 109%. The figure for `O=C(O)c1ccc(N2C(=O)/C(=C/c3c[nH]c4ccccc34)SC2=S)cc1` [CBK263085] is 90.4%; for `CN1CCN(C(C(=O)O)c2cn(CCC(=O)O)c3ccc(Br)cc23)CC1` (centres unmarked) [CBK286698] it is 103%. Take `O=C(Nc1ccc(O)cc1)c1ccc(N2C(=O)c3cccc([N+](=O)[O-])c3C2=O)cc1` [CBK262600]: the viability at 28.5 h, 10 µM is 89.8%. The figure for `COc1ccccc1CNc1nccc(-n2ccc(C)n2)n1` [CBK288611] is 111%; for `CCn1ncnc1CN1CCN(C2Cc3ccccc3C2)CC1` [CBK304401] it is 101%; for `CCCC(=O)Nc1ccc(N2CCNCC2)c2ccccc12` [CBK024619T] it is 88.4%. For the compound `CN1CCC(N(C)C2CCN(Cc3ccccc3)CC2)CC1` [CBK261925], the viability at 28.5 h, 10 µM worked out at 85.8%. On to `Cc1ccc(CC(=O)N2CCc3nn(C(C)C)c(=O)cc3C2)cc1` [CBK284499], for which the viability at 28.5 h, 10 µM is 93.6%. For the compound `CC1CCCC(C)N1CC(=O)Nc1ccccc1Oc1ccccc1` (centres unmarked) [CBK015824C], the viability at 28.5 h, 10 µM was found to be 119%. In the case of `CCOC(=O)C1=C(N)OC2=C(C(=O)CC(C)(C)C2)C1c1cc(OCC)ccc1OCC` (centres unmarked) [CBK008699], the viability at 28.5 h, 10 µM came to 107%. As for `CC[C@H]1CN(C(=O)Nc2cccc(C(F)(F)F)c2)CC[C@H]1CC(=O)O` [CBK288776], the viability at 28.5 h, 10 µM is 89.3%. For the compound `CCN(CC)C(=O)c1c(F)ccc(F)c1C(=O)O` [CBK022303], the viability at 28.5 h, 10 µM was found to be 85%. `CC(Oc1ccccc1)C(=O)NCCCc1ccccc1` (centres unmarked) [CBK264060]: the viability at 28.5 h, 10 µM was 93.4%.

Turning to `C=CCn1oc(=O)n(-c2ccc(OC)cc2)c1=O` [CBK122773], the viability at 28.5 h, 10 µM came out at 89.4%.

For `Cc1cc(C(=O)N2C3CCC2CC(O)(c2ccnn2C)C3)sc1C` (centres unmarked) [CBK284518], the viability at 28.5 h, 10 µM is 103%.

`FC(F)(F)Oc1cccc(-c2cn3ccnc3c(NCCc3ccccn3)n2)c1` [CBK038017]: the viability at 28.5 h, 10 µM is 96.7%. Take `COc1cc(OC)nc(C(NC(=O)C2CCN(CCN3C(=O)c4ccccc4C3=O)CC2)c2ccc(F)cc2)n1` (centres unmarked) [CBK148083]: the viability at 28.5 h, 10 µM is 103%. With `CN1C(=O)C(CC(=O)Nc2ccc(F)cc2)N(CCc2ccccc2)C1=S` (centres unmarked) [CBK263861], the viability at 28.5 h, 10 µM was found to be 118%. Consider `CN(C)CCCNC(=S)NCc1ccc(Cl)cc1` [CBK266910], for which the viability at 28.5 h, 10 µM was determined as 97.3%.

For the compound `COc1ccc(C2(O)CCN(CC(O)c3ccc(C(C)(C)C)cc3)CC2)cc1` (centres unmarked) [CBK286333], the viability at 28.5 h, 10 µM was 90.6%. Turning to `N#C/C(=C/c1cn(CC(=O)O)c2ccccc12)c1ccc(C(=O)O)cc1` [CBK268977], the viability at 28.5 h, 10 µM is 111%. In the case of `O=C(CSc1nnnn1C1CC1)c1cc2ccccc2o1` [CBK297158] it was 90.7%; in that of `O=C(OCc1cc([N+](=O)[O-])cc2c1OCOC2)c1ccco1` [CBK297537], 97.9%; in that of `Clc1ccc(CN2CCCN(c3nccc(OCC4COc5ccccc5O4)n3)CC2)cc1` (centres unmarked) [CBK084038], 84.9%. Take `CCc1c(C)nc2c(C(=O)NCc3cc(C)on3)cnn2c1C` [CBK162150]: the viability at 28.5 h, 10 µM was 82.5%. Take `CCOC(=O)c1c(NC(=O)C2CCCN2S(=O)(=O)c2ccccc2)sc2c1CCCC2` (centres unmarked) [CBK265012]: the viability at 28.5 h, 10 µM was found to be 92%.

As to `Sc1nnc(COc2ccc(Cl)cc2Cl)n1Cc1ccccc1` [CBK263138], the viability at 28.5 h, 10 µM was determined as 88.2%. `CS(=O)(=O)Nc1nccnc1N1CCN(Cc2ccccc2)CC1` [CBK084268]: the viability at 28.5 h, 10 µM came out at 96.5%. Regarding `CCC(=O)N[C@H]1CC[C@]2(CC1)CNC(=O)c1ccccc1O2` [CBK281681], the viability at 28.5 h, 10 µM was 106%. On to `CCN1CCC2(C/C=C/CCOc3ccccc3C(=O)NCCCNC2=O)CC1` [CBK292060], for which the viability at 28.5 h, 10 µM turned out to be 83.3%.
